Measured values taken from PubChem BioAssay (NCI).
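Each compound was tested at five concentrations against cells in 96-well plates for 48 hours. The concentration for 50% growth inhibition is given as GI50. Definition used: TGI = concentration required for complete inhibition of growth.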

Key:
Experiment in all cases: DTP human tumour cell line panel, 48 h
[1] = system: 786-0 renal
[2] = system: A498 renal
[3] = system: A549 NSCLC
[4] = system: ACHN renal
[5] = system: BT-549 breast
[6] = system: CAKI-1 renal
[7] = system: CCRF-CEM leukemia
[8] = system: COLO 205 colon
[9] = system: DU-145 prostate
[10] = system: EKVX NSCLC
[11] = system: HCC-2998 colon
[12] = system: HCT-116 colon
[13] = system: HCT-15 colon
[14] = system: HL-60(TB) leukemia
[15] = system: HOP-62 NSCLC
[16] = system: HOP-92 NSCLC
[17] = system: HS 578T breast
[18] = system: HT29 colon
[19] = system: IGROV1 ovarian
[20] = system: K-562 leukemia
[21] = system: KM12 colon
[22] = system: LOX IMVI melanoma
[23] = system: M14 melanoma
[24] = system: MALME-3M melanoma
[25] = system: MCF7 breast
[26] = system: MDA-MB-435
[27] = system: MDA-MB-468 breast
[28] = system: MOLT-4 leukemia
[29] = system: NCI-H226 lung
[30] = system: NCI-H23 lung
[31] = system: NCI-H460 lung
[32] = system: NCI-H522 lung
[33] = system: NCI/ADR-RES ovarian
[34] = system: OVCAR-3 ovarian
[35] = system: OVCAR-4 ovarian
[36] = system: OVCAR-5 ovarian
[37] = system: OVCAR-8 ovarian
[38] = system: PC-3 prostate
[39] = system: RPMI-8226 leukemia
[40] = system: RXF 393 renal
[41] = system: SF-268 CNS
[42] = system: SF-295 CNS
[43] = system: SF-539 CNS
[44] = system: SK-MEL-28 melanoma
[45] = system: SK-MEL-5 melanoma
[46] = system: SK-OV-3 ovarian
[47] = system: SN12C renal
[48] = system: SNB-19 CNS
[49] = system: SR leukemia
[50] = system: SW-620 colon
[51] = system: T-47D breast
[52] = system: TK-10 renal
[53] = system: U251 CNS
[54] = system: UACC-257 melanoma
[55] = system: UACC-62 melanoma

O=C(Cc1c(-c2ccccc2[N+](=O)[O-])n(-c2ncnc3c2c(-c2ccccc2)c(-c2ccccc2)n3Cc2ccccc2)[nH]c1=O)c1ccc(Cl)c(Cl)c1
GI50 [1]: 26.8 µM
TGI [1]: > 100 µM
GI50 [2]: 16.6 µM
TGI [2]: 78 µM
GI50 [3]: 19.7 µM
TGI [3]: > 100 µM
GI50 [4]: 15.2 µM
TGI [4]: > 100 µM
GI50 [5]: 12.1 µM
TGI [5]: 53.8 µM
GI50 [6]: 15.7 µM
TGI [6]: 93.9 µM
GI50 [7]: 18.6 µM
TGI [7]: > 100 µM
GI50 [8]: 11.5 µM
TGI [8]: 24.7 µM
GI50 [9]: 33.9 µM
TGI [9]: > 100 µM
GI50 [10]: 3.84 µM
TGI [10]: > 100 µM
GI50 [11]: 18.8 µM
TGI [11]: > 100 µM
GI50 [12]: 5.9 µM
TGI [12]: 80.9 µM
GI50 [13]: 15.8 µM
TGI [13]: 57.5 µM
GI50 [14]: 5.24 µM
TGI [14]: 58.7 µM
GI50 [15]: 19.4 µM
TGI [15]: 85.5 µM
GI50 [16]: 2.2 µM
TGI [16]: 23.7 µM
GI50 [17]: 10.4 µM
TGI [17]: 74.6 µM
GI50 [18]: 10.1 µM
TGI [18]: > 100 µM
GI50 [19]: 12.1 µM
TGI [19]: > 100 µM
GI50 [20]: 6.68 µM
TGI [20]: > 100 µM
GI50 [21]: 15.1 µM
TGI [21]: > 100 µM
GI50 [22]: 11.6 µM
TGI [22]: 26.9 µM
GI50 [23]: 17.7 µM
TGI [23]: 58.1 µM
GI50 [24]: 12.4 µM
TGI [24]: 48.9 µM
GI50 [25]: 12.7 µM
TGI [25]: 47.7 µM
GI50 [26]: 19.5 µM
TGI [26]: 62.2 µM
GI50 [27]: 5.29 µM
TGI [27]: 33.5 µM
GI50 [28]: 13.4 µM
TGI [28]: 61.6 µM
GI50 [29]: 14.4 µM
TGI [29]: 61 µM
GI50 [30]: 13.3 µM
TGI [30]: 72.5 µM
GI50 [31]: 15.3 µM
TGI [31]: > 100 µM
GI50 [32]: 7.37 µM
TGI [32]: 72.8 µM
GI50 [33]: 19.7 µM
TGI [33]: > 100 µM
GI50 [34]: 12.8 µM
TGI [34]: > 100 µM
GI50 [35]: 13.2 µM
TGI [35]: > 100 µM
GI50 [36]: 16.4 µM
TGI [36]: 83.8 µM
GI50 [37]: 20.1 µM
TGI [37]: > 100 µM
GI50 [38]: 5.45 µM
TGI [38]: > 100 µM
GI50 [39]: 3.38 µM
TGI [39]: 29.7 µM
GI50 [40]: 22.5 µM
TGI [40]: > 100 µM
GI50 [41]: 29.4 µM
TGI [41]: > 100 µM
GI50 [42]: 8.34 µM
TGI [42]: > 100 µM
GI50 [43]: 21 µM
TGI [43]: 83.9 µM
GI50 [44]: 17.9 µM
TGI [44]: > 100 µM
GI50 [45]: 8.89 µM
TGI [45]: 21.6 µM
GI50 [46]: 14.2 µM
TGI [46]: 55.4 µM
GI50 [47]: 15.1 µM
TGI [47]: > 100 µM
GI50 [48]: 15.9 µM
TGI [48]: > 100 µM
GI50 [49]: 12.4 µM
TGI [49]: 45.3 µM
GI50 [50]: 22.5 µM
TGI [50]: > 100 µM
GI50 [51]: 2.76 µM
TGI [51]: > 100 µM
GI50 [52]: 29.3 µM
TGI [52]: > 100 µM
GI50 [53]: 13.7 µM
TGI [53]: > 100 µM
GI50 [54]: 9.08 µM
TGI [54]: 66.1 µM
GI50 [55]: 5.17 µM
TGI [55]: 20.9 µM
